According to patent publication US20050209157A1, “Short bioactive peptides and methods for their use” (priority 2001, published 2005):
Converted amounts (≈) assume the structure as drawn. Like-named read-outs stand apart in the source and are kept apart here. Non-standard residues stand in square brackets, D forms with d. Residues, ends and D or L forms follow the SMILES beside them. No end group written: not given here.

What was measured:
in vitro [1] = assay type: cell-based, human; details: human, human red blood cells, pH 7, hemolytic assay, concentration at 50% hemolysis, 1 hour at 37° C.; read-out: LD50
S. aureus (MRSA) = assay type: cell-based, Staphylococcus aureus; details: mean of three; 16 to 20 hours at 35° C.
S. epidermidis C621 = assay type: cell-based, Staphylococcus epidermidis; details: mean of three; 16 to 20 hours at 35° C.
H1299 = test: Anti-cancer assay, MTT, LD50; assay type: cell-based; details: 24 hours with peptide, lung large cell carcinoma
Excerpt: (§1) Numbers are LD50 values (μg/mL).

SW480 = test: Anti-cancer assay, MTT, LD50; assay type: cell-based; details: SW480 colon adenocarcinoma line, 24 hours with peptide
Excerpt: as §1

BMKC = test: Anti-cancer assay, MTT, LD50; assay type: cell-based; details: BMKC cloned melanoma line, 24 hours with peptide
Excerpt: as §1

MCF7 = test: Anti-cancer assay, MTT, LD50; assay type: cell-based; details: MCF7 breast adenocarcinoma line, MTT, 24 hours with peptide
Excerpt: as §1

HeLaS3 = test: Anti-cancer assay, MTT, LD50; assay type: cell-based; details: 24 hours with peptide, cervical carcinoma
Excerpt: as §1

PC3 = test: Anti-cancer assay, MTT, LD50; assay type: cell-based; details: 24 hours with peptide, prostate adenocarcinoma
Excerpt: as §1

[2] = test system: Staphylococcus aureus ATCC 6538; test: Antimicrobial assay I, MIC by OD measurement; assay type: cell-based; details: 37° C. for 24 hours, absorbance 620 nm
[3] = test system: Pseudomonas aeruginosa ATCC 9027; test: Antimicrobial assay I, MIC by OD measurement; assay type: cell-based; details: 37° C. for 24 hours, absorbance 620 nm
P. aeruginosa = assay type: cell-based, Pseudomonas aeruginosa; details: P. aeruginosa H744; MIC of nalidixic acid with peptide at ¼ MIC
Method in brief: (§2)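 FIC index, computed as 0.25 plus the ratio of combination to single-agent antibiotic MIC, defines synergy when 0.5 or below. Peptide fixed at one quarter MIC while chloramphenicol or nalidixic acid was serially diluted two-fold; antibiotic-alone MICs served as baselines.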

P. aeruginosa H774 = assay type: cell-based, Pseudomonas aeruginosa; details: P. aeruginosa H744; nalidixic acid + peptide at ¼ MIC; 0.5 or less = synergy
Method in brief: as §2

P. aeruginosa H374 = assay type: cell-based, Pseudomonas aeruginosa; details: for MIC Cm-comb.: MIC of chloramphenicol with peptide at ¼ MIC; for MIC Nal-comb.: MIC of nalidixic acid with peptide at ¼ MIC; for FIC Index: 0.5 or less = synergy
Method in brief: as §2

[4] = test system: yeast (Saccharomyces cerevisiae); test: Antimicrobial assay I, yeast assay in RPMI 1640; assay type: cell-based; details: RPMI 1640 media
P. acne ATCC 6919 = test: Antimicrobial assays II, NCCLS broth microdilution MIC; assay type: cell-based, Propionibacterium acnes; details: mean of three, in µg/mL
S. pyogenes ATCC19615 = test: as above; assay type: cell-based, Streptococcus pyogenes; details: mean of three, in µg/mL
S. pyogenes M76 = test: as above; assay type: cell-based, Streptococcus pyogenes; details: mean of three; 16 to 20 hours at 35° C.
in vitro [5] = details: human, WI38 normal lung fibroblast cells, LD50 WI38, WI38 normal lung fibroblast line, MTT, 24 hours with peptide
Experimental: (§3) Viability of cells is determined by the dye response. In the following procedure, approximately 1.5×10^4 cells per well were added and viability was determined with the cells in a semi-confluent state. The assay was performed in a 96-well microtiter plate. After addition of peptide, the plate was set for 24 hours. MTT (5 mg/ml in phenol red-free RPMI-1640, 20 μl) was added to each well including positive control wells untreated with peptide. The plate was incubated at 37° C. for 4 hours. The liquid contents of each well was removed, and isopropanol with 0.1 M HCl (100 μl) was added to each well. The plate was sealed with parafilm to prevent evaporation of the isopropanol. The plate is allowed to rest for 5-10 minutes in order to solubilize the precipitate. Purified water (100 μl) was added to each well. Absorbance was determined with an ELISA Reader instrument. Color intensity at 540 nm is proportional to viability of cells.
(§4) WI38 (ATCC No. CCL75) is a normal fibroblast line of lung diploid cells, MCF7 (ATCC No. HTB22) is a breast adenocarcinoma tumor cell line, SW480 (ATCC No. CCL228) is a colon adenocarcinoma tumor cell line, BMKC is a cloned melanoma line derived from Bowes melanoma line HMCB (ATCC No. CRL9607), H1299 (ATCC No. CRL5803) is a lung large cell carcinoma tumor line, HeLaS3 (ATCC No. CCL2.2) is a cervical epitheleal carcinoma tumor cell line, and PC3 (ATCC No. CRL1435) is a prostate adenocarcinoma tumor cell line.

S. pneumoniae C719 = test: Antimicrobial assays II, NCCLS broth microdilution MIC; assay type: cell-based, Streptococcus pneumoniae; details: mean of three, in µg/mL
WI38 = details: MTT, 24 hours with peptide; normal fibroblast line
Experimental: as §3, §4

S. pneumoniae C718 = test: Antimicrobial assays II, NCCLS broth microdilution MIC; assay type: cell-based, Streptococcus pneumoniae; details: mean of three
[6] = chloramphenicol + peptide at ¼ MIC
[7] = nalidixic acid + peptide at ¼ MIC, FIC=0.25+MIC comb/MIC alone

Molecule	HC50 at 1 h (in vitro [1]) [µg/mL]	S. aureus (MRSA) MIC (S. aureus (MRSA)) [µg/mL]	S. epidermidis C621 MIC (S. epidermidis C621) [µg/mL]	H1299 LD50 (H1299) [µg/mL]	LD50 SW480 (SW480) [µg/mL]	LD50 BMKC (BMKC) [µg/mL]	LD50 MCF7 (MCF7) [µg/mL]	PC3 LD50 (PC3) [µg/mL]	staph6538 (MIC) [2] [µg/mL]	paerug9027 (MIC) [3] [µg/mL]	MIC Nal-comb. (P. aeruginosa) [µg/mL]	FIC Index (P. aeruginosa H774)	MIC Cm-comb. (P. aeruginosa H374) [µg/mL]	MIC Nal-comb. (P. aeruginosa H374) [µg/mL]	FIC Index (P. aeruginosa H374; [6])	FIC Index (P. aeruginosa H374; [7])	yeast (MIC or MFC) [4] [µg/mL]	P. acne MIC (P. acne ATCC 6919)	S. pyogenes MIC (S. pyogenes ATCC19615)	S. pyogenes M76 MIC (S. pyogenes M76) [µg/mL]	further results
FAKFLAKFLKKAL-NH2 [P111, FAKFLAKFLKKAL-NH2]	60	8	4	8	27	26	35	11	5	100	624	1.25	16	2500	1.25	0.75	200	4	2	4	HeLaS3 LD50 (HeLaS3): 7 µg/mL; CC50 at 24 h (in vitro [5]): 24 µg/mL; S. pneumoniae MIC (S. pneumoniae C719): 4; WI38 LD50 (WI38): 24 µg/mL; S. pneumoniae MIC (S. pneumoniae C718): 16 µg/mL
FAKKLAKLALKLAKL-NH2 [P44]	90	8	4	72	32	47	140	45	5	5	624	1.25	16	5000	1.25	1.25	50	4	4	4	HeLaS3 LD50 (HeLaS3): 22 µg/mL; CC50 at 24 h (in vitro [5]): 36 µg/mL; S. pneumoniae MIC (S. pneumoniae C719): 16; WI38 LD50 (WI38): 36 µg/mL; S. pneumoniae MIC (S. pneumoniae C718): 8 µg/mL
FAKLLAKLAKKLL-NH2 [P43]	20	4	2	6	9	7	9	12	5	100	624	1.25	16	5000	1.25	1.25	25	2	2	2	HeLaS3 LD50 (HeLaS3): 15 µg/mL; CC50 at 24 h (in vitro [5]): 5 µg/mL; S. pneumoniae MIC (S. pneumoniae C719): 4; WI38 LD50 (WI38): 5 µg/mL; S. pneumoniae MIC (S. pneumoniae C718): 8 µg/mL
FAKLLAKALKKFAL-NH2 [P119, FAKLLAKALKKFAL-NH2]	400	8	4	33	46	36	54	140	50	25	624	1.25	16	2500	1.25	0.75	50	8	8	8	HeLaS3 LD50 (HeLaS3): 30 µg/mL; CC50 at 24 h (in vitro [5]): 45 µg/mL; S. pneumoniae MIC (S. pneumoniae C719): 32; WI38 LD50 (WI38): 45 µg/mL; S. pneumoniae MIC (S. pneumoniae C718): 128 µg/mL
FAKLLAKALKKLL-NH2 [P55]	20	4	2	7	14	16	16	47	5	5	624	1.25	16	5000	1.25	1.25	25	4	2	4	HeLaS3 LD50 (HeLaS3): 15 µg/mL; CC50 at 24 h (in vitro [5]): 32 µg/mL; S. pneumoniae MIC (S. pneumoniae C719): 4; WI38 LD50 (WI38): 32 µg/mL; S. pneumoniae MIC (S. pneumoniae C718): 8 µg/mL
FAKKLAKKLAKLL-NH2 [P75]	750	32	8	80	17	24	42	54	5	5	624	1.25	8	2500	0.75	0.75	50	16	4	8	HeLaS3 LD50 (HeLaS3): 74 µg/mL; CC50 at 24 h (in vitro [5]): 80 µg/mL; S. pneumoniae MIC (S. pneumoniae C719): 64; WI38 LD50 (WI38): 80 µg/mL; S. pneumoniae MIC (S. pneumoniae C718): > 128 µg/mL
CC(C)C[C@H](NC(=O)[C@H](C)NC(=O)[C@H](CCCCN)NC(=O)[C@H](CCCCN)NC(=O)[C@H](CC(C)C)NC(=O)[C@H](C)NC(=O)[C@H](CCCCN)NC(=O)[C@H](CCCCN)NC(=O)[C@H](CC(C)C)NC(=O)[C@@H](CCCCN)NC(=O)[C@@H](CCCCN)NC(=O)[C@H](CC(C)C)NC(=O)[C@H](C)NC(=O)[C@H](CCCCN)NC(=O)[C@H](CCCCN)NC(=O)[C@H](CC(C)C)NC(=O)[C@H](C)NC(=O)[C@H](CCCCN)NC(=O)[C@H](CC(C)C)NC(=O)[C@H](C)NC(=O)[C@H](CC(C)C)NC(=O)[C@H](C)NC(=O)[C@@H](N)Cc1ccccc1)C(=O)O [P37, FALALKALKKAL-(D)-K-(D)-KLKKALKKAL-COOH] (H-FALALKALKKAL[dK][dK]LKKALKKAL-OH; N-terminus assumed)	30	8	4	150	57	150	14	64	5	100	624	1.25	4	2500	0.5	0.75	50	4	8	8	CC50 at 24 h (in vitro [5]): 80 µg/mL (≈ 31.5 µM); S. pneumoniae MIC (S. pneumoniae C719): 16; WI38 LD50 (WI38): 80 µg/mL; S. pneumoniae MIC (S. pneumoniae C718): 64 µg/mL
